# Measurements: ChEMBL document CHEMBL4118090, “Dihydrothieno-pyridin-one and Tetrahydrothieno-azepinone Inhibitors of Enhancer of Zeste Homologue 2” (ACS Med Chem Lett, 2017)
# pIC50: −log10 of the molar value.
# Molecular target: Histone-lysine N-methyltransferase EZH2 (Homo sapiens, UniProt Q15910)
# Assay: Inhibition of methyltransferase activity of flag-tagged EZH2 in human PRC2 complex expressed in Sf9 insect cells using biotinylated histone H3K27 peptide as substrate after 60 mins in presence of 3H-SAM by scintillation proximity assay
# Chain of Histone-lysine N-methyltransferase EZH2 (Q15910 whole entry): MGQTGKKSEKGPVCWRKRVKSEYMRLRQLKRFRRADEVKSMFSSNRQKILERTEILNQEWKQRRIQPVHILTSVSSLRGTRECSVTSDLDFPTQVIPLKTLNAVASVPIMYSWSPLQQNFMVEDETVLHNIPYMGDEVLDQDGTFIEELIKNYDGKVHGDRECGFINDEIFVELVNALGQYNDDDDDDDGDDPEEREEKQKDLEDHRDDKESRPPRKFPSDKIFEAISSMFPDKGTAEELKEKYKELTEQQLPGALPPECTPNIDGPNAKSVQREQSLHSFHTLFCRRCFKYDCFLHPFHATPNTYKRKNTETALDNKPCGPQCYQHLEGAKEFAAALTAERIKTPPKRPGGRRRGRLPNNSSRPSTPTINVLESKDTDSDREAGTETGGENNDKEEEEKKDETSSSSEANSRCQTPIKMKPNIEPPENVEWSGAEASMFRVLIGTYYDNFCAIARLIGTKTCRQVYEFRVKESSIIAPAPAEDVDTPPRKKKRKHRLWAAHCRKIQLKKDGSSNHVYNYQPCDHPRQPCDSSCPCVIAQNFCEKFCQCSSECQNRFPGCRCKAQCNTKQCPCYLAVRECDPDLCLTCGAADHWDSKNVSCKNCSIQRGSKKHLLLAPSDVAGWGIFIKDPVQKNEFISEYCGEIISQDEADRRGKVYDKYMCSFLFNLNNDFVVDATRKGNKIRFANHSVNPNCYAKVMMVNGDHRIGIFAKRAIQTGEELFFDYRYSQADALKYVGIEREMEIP
row,pIC50,Compound
1,≥ 8.00,CC[C@@H](c1sc2c(c1C)CN(C(=O)c1c(C)cc(C)[nH]c1=O)CC2)C1CCN(Cc2ccccn2)CC1
2,≥ 8.00,Cc1cc(C)c(CN2CCCc3sc([C@H](C)C4CCN(Cc5ccccn5)CC4)c(C)c3C2)c(=O)[nH]1

# The next lines start with the compound.
row,Compound,pIC50
1,Cc1cc(C)c(CN2CCCc3sc([C@H](C)C4CCN(CC5CCCCC5)CC4)c(C)c3C2)c(=O)[nH]1,≥ 8.00
2,CC[C@@H](c1sc2c(c1C)C(=O)N(Cc1c(C)cc(C)[nH]c1=O)CC2)C1CCN(Cc2ccccc2)CC1,≥ 8.00
3,CC[C@@H](c1sc2c(c1C)CN(Cc1c(C)cc(C)[nH]c1=O)CC2)C1CCN(Cc2ccnc(OC)c2)CC1,≥ 8.00
4,CC[C@@H](c1scc(C(=O)NCc2c(C)cc(C)[nH]c2=O)c1C)C1CCN(Cc2ccc(Cl)cn2)CC1,≥ 8.00
